# According to patent US4259332A, “Novel taurine derivatives” (priority 1979, dated 1981):
# Like-named read-outs stand apart in the source and are kept apart here.
# How the values were obtained:
# [1] = Vasodilator activity (vasodilation of the ocular conjunctiva in guinea pigs); assay type: in vivo, guinea pig
# [2] = assay type: in vivo, rat; conditions: fasted rats, oral, 225 mg/Kg acetylsalicylic acid
# Procedure: Rats which had not been fed for 24 hours were used. The AST product was administered orally as the acid or the sodium salt at a dosage of 335 mg/Kg suspended in 1% carboxymethylcellulose. […] Both the methods of treatment and the observation time were identical for the 3 groups of animals.
# [3] = Analgesic activity: convulsions produced by phenylquinone; assay type: in vivo, mouse; conditions: oral, ASA 200, AST 300 mg/Kg
# Procedure: (A) Test of convulsions produced by phenylquinone injected into mice by the intraperitoneal route. The AST product was administered orally both in the acid form (AST Ac). and as the sodium salt (AST Na). It was compared with a molar equivalent dosage of acetylsalicylic acid and with a carboxymethylcellulose placebo. The convulsions were induced at varying intervals from the oral treatment counting from the first 20 minutes after the injection of phenylquinone.
# [4] = Analgesic activity: mechanical pressure test on inflamed rat's paw; assay type: in vivo; conditions: oral, ASA 200, AST 300 mg/Kg
# Procedure: (B) Mechanical pressure test on inflamed rat's paw. The AST product was administered both in the acid and sodium salt form by the oral method. It was compared with a molar equivalent dosage of acetylsalicylic acid and with a carboxymethylcellulose placebo. The inflammation of the paw was induced by a local injection of yeast simultaneously with the oral treatment with the drugs and the tenderness was measured in grams of mechanical pressure required to cause a reaction in the animal.
# [5] = Edema resulting from yeast in the paw of the rat; assay type: in vivo; conditions: oral, ASA 200, AST 300 mg/Kg
# Procedure: (A) Edema resulting from yeast in the paw of the rat. The AST product was administered orally both in the acid and sodium salt form. It was compared with a molar equivalent dose of acetylsalicylic acid and with carboxymethylcellulose placebo. The edema of the paw was induced with a local injection of the yeast simultaneously with the oral treatment with the drugs, and the volume of the paw was measured in hundredths of milliliter.
# [6] = Edema as a result of nystatin in the rat's paw; assay type: in vivo; conditions: p.o.
# Procedure: (B) Edema as a result of nystatin in the rat's paw. The long duration of this type of edema enabled the animals to be repeatedly treated in order to ascertain the presence if any of the protracted effect of the AST product also using parenteral administration. The comparison was carried out using a molar equivalent dose of acetylsalicylic acid administrated orally and with the carboxymethylcellulose placebo also only administered orally. The AST product was used in the acid form orally and in the salt form using intraperitoneal administration.
# The dosages of the drugs, always proportional to one another, were varied from day to day, i.e.: the first day a dosage of 200 mg/Kg of ASA and 300 mg/Kg of AST; the second day a double dose of each; the third day a double dose of each divided into two equal components administered with a spacing of 9 hours (10 am and 7 pm respectively); the fourth day no treatment in order to check the length of the effect after the fourth administration.
# The […] was injected into the paw on the night before the first treatment with the drugs and the volume of the paw was measured in hundredths of milliliter.
# [7] = Antipyretic activity: pyrexia from subcutaneous yeast in the rat; assay type: in vivo; conditions: p.o., ASA 200, AST 300 mg/Kg
# Procedure: Pyrexia from subcutaneous yeast in the rat. The AST product was administered orally in the acid from and the salt form with sodium, and by the intraperitoneal method in the salt form. It was compared with a molar equivalent dose of acetylsalicylic acid administered orally and with a carboxymethylcellulose placebo. The pyrexia was induced with a subcutaneous injection of yeast on the evening prior to the drug treatment, i.e. 16 hours before.
# [8] = mouse, literature, cited from earlier work
# [9] = Antilipemic action, Morris or Handler diet, Compound A; assay type: in vivo, Wistar rat; conditions: 50 days, 200 mg/kg orally
# Procedure: Wistar rats were treated for 50 days with a Morris diet or a Handler diet. Simultaneously with the diet they received 200 mg/kg of Compound A or of choline orally every day. The controls only received the diet. The following were examined at the end of the treatment: (a) total cholesterol, total lipids and beta-lipoproteins in the serum, (b) BSF excretion in the bile.
# [10] = Antilipemic action, Morris, Handler or Nath diet, Compound B; assay type: in vivo, Wistar rat; conditions: 45 days, 200 mg/kg orally
# Procedure: Wistar rats were treated for 45 days with a Morris diet, a Handler diet or a Nath diet. Simultaneously with the diet they received each day 200 mg/kg of Compound B or choline (except for the Nath diet) orally.
# [11] = Choleretic activity in cannulated rats; assay type: in vivo, rat; conditions: for Bile dry residue change / Bile volume change / Bile dry residue after 2 h / Bile volume after 2 h: 100 mg/kg i.v.; for Bile dry residue after 2 h / Bile volume after 2 h: given after first hour; for Bile dry residue after 1 h / Bile volume after 1 h: before treatment (first hour)
# Procedure: Rats were fitted with a cannula, the bile volume was measured after the first hour, they were then treated with a test compound and the bile volume was measure after the second hour, so as to determine the percentage change. The various compounds were administered intravenously at a dose of 100 mg/kg.
# [12] = Protection against hepatic intoxication by CCl4 and cold, Compound B (BSF in blood); assay type: in vivo; conditions: 500 mg/kg endoperitoneal
# Procedure: Oral administration of 5 ml/kg of a 20% solution of CCl4 in oil, with simultaneous endoperitoneal administration of 500 mg/kg of Compound B, was followed by exposure for 5 hours at 4° C. BSF in the blood (30 mg/kg i.v.) was tested. A comparison product, homocysteinethiolactone (OCT) was employed.
# 10 Animals were treated per group, and the results expressed as percentage change with respect to the controls were as shown in Table 4.
smiles,measurement,setting,value
"O=C(O)C(O)C(O)C(=O)O.OCc1cccnc1 (centres unmarked) [3-Pyridylcarbinol tartrate, 3-pyridylcarbinol tartrate]",Vasodilator effect: duration,[1]; 0.1 mg/kg endoperitoneal,0 min
same,Vasodilator effect: positive response,[1]; 0.1 mg/kg endoperitoneal,0%
same,Vasodilator effect: time of appearance,[1]; 0.1 mg/kg endoperitoneal,0 s
same,Vasodilator effect: positive response,[1]; 1.0 mg/kg endoperitoneal,40%
same,Vasodilator effect: duration,[1]; 10.0 mg/kg endoperitoneal,120 min
same,Vasodilator effect: positive response,[1]; 10.0 mg/kg endoperitoneal,100%
same,Vasodilator effect: time of appearance,[1]; 10.0 mg/kg endoperitoneal,57 s
"CC(=O)Oc1ccccc1C(=O)O [ASA, acetylsalicylic acid, reference compound]",Haemorrhagic gastric ulcers,[2],5 to 10
same,Inhibition % of convulsions in respect of treatment with placebo,[3]; 1h,23%
same,Inhibition % of convulsions in respect of treatment with placebo,[3]; 2h,37%
same,Inhibition % of convulsions in respect of treatment with placebo,[3]; 4h,17%
same,% Inhibition of the hyperalgesia in respect of treatment with placebo,[4]; 1h,27%
same,% Inhibition of the hyperalgesia in respect of treatment with placebo,[4]; 5h,0%
same,Inhibition of the edema with respect to treatment with placebo,[5]; 1h,41
same,Inhibition of the edema with respect to treatment with placebo,[5]; 3h,51
same,Inhibition of the edema with respect to treatment with placebo,[5]; 5h,55
same,% Inhibition of the edema in respect of treatment with placebo,"[6]; 1st day, 2h after 1st dose, ASA 200, AST Ac 300 mg/Kg",8%
same,% Inhibition of the edema in respect of treatment with placebo,"[6]; 1st day, 4h after 1st dose, ASA 200, AST Ac 300 mg/Kg",10%
same,% Inhibition of the edema in respect of treatment with placebo,"[6]; 1st day, 8h after 1st dose, ASA 200, AST Ac 300 mg/Kg",7%
same,% Inhibition of the edema in respect of treatment with placebo,"[6]; 2nd day, 2h after 2nd dose, ASA 400, AST Ac 600 mg/Kg",10%
same,% Inhibition of the edema in respect of treatment with placebo,"[6]; 2nd day, 4h after 2nd dose, ASA 400, AST Ac 600 mg/Kg",11%
same,% Inhibition of the edema in respect of treatment with placebo,"[6]; 2nd day, 8h after 2nd dose, ASA 400, AST Ac 600 mg/Kg",15%
same,% Inhibition of the edema in respect of treatment with placebo,"[6]; 3rd day, 2h after 3rd dose, ASA 200, AST Ac 300 mg/Kg",8%
same,% Inhibition of the edema in respect of treatment with placebo,"[6]; 3rd day, 4h after 3rd dose, ASA 200, AST Ac 300 mg/Kg",11%
same,% Inhibition of the edema in respect of treatment with placebo,"[6]; 3rd day, 8h after 3rd dose, ASA 200, AST Ac 300 mg/Kg",14%
same,% Inhibition of the edema in respect of treatment with placebo,"[6]; 4th day, 13h after 4th dose, ASA 200, AST Ac 300 mg/Kg",9%
same,% Inhibition of the edema in respect of treatment with placebo,"[6]; 4th day, 17h after 4th dose, ASA 200, AST Ac 300 mg/Kg",12%
same,% Inhibition of the edema in respect of treatment with placebo,"[6]; 4th day, 23h after 4th dose, ASA 200, AST Ac 300 mg/Kg",8%
same,% Inhibition of the pyrexia in respect of treatment with placebo,[7]; 1h,78%
same,% Inhibition of the pyrexia in respect of treatment with placebo,[7]; 2h,103%
same,% Inhibition of the pyrexia in respect of treatment with placebo,[7]; 4h,114%
same,% Inhibition of the pyrexia in respect of treatment with placebo,[7]; 6h,58%
same,% Inhibition of the pyrexia in respect of treatment with placebo,[7]; 8h,45%
same,LD50,[8]; intraperitoneal,420 mg/kg
same,LD50,[8]; oral,"1,050 mg/kg"
"C[N+](C)(C)CCO [Choline, choline, reference compound]","Bile BSF excretion, percentage change vs controls",[9]; Handler diet,-39.5%
same,"Serum total cholesterol, percentage change vs controls",[9]; Handler diet,-21.1%
same,"Serum total lipids, percentage change vs controls",[9]; Handler diet,+44.2%
same,"Bile BSF excretion, percentage change vs controls",[9]; Morris diet,-2.8%
same,"Serum beta-lipoproteins, percentage change vs controls",[9]; Morris diet,+89.8%
same,"Serum total cholesterol, percentage change vs controls",[9]; Morris diet,-22.9%
same,"Serum total lipids, percentage change vs controls",[9]; Morris diet,+2.3%
same,"Bile BSF, percentage change vs control","[10]; Handler diet, B and Choline",-39.5%
same,"Liver total lipids, percentage change vs control","[10]; Handler diet, B and Choline",-29.2%
same,"Serum total cholesterol, percentage change vs control","[10]; Handler diet, B and Choline",-21.1%
same,"Serum total lipids, percentage change vs control","[10]; Handler diet, B and Choline",+44.2%
same,"Bile BSF, percentage change vs control",[10]; Morris diet,-2.8%
same,"Liver total lipids, percentage change vs control",[10]; Morris diet,+14.0%
same,"Serum beta-lipoproteins, percentage change vs control",[10]; Morris diet,+89.8%
same,"Serum total cholesterol, percentage change vs control",[10]; Morris diet,-22.9%
same,"Serum total lipids, percentage change vs control",[10]; Morris diet,+2.3%
"O=C(OC1C(OC(=O)c2cccnc2)C(OC(=O)c2cccnc2)C(OC(=O)c2cccnc2)C(OC(=O)c2cccnc2)C1OC(=O)c1cccnc1)c1cccnc1 (centres unmarked) [Mesoinosital hexanicotinate, mesoinosital hexanicotinate]",Vasodilator effect: duration,[1]; 1.0 mg/kg endoperitoneal,0 min
same,Vasodilator effect: positive response,[1]; 1.0 mg/kg endoperitoneal,0%
same,Vasodilator effect: duration,[1]; 10.0 mg/kg endoperitoneal,87 min
same,Vasodilator effect: positive response,[1]; 10.0 mg/kg endoperitoneal,100%
same,Vasodilator effect: time of appearance,[1]; 10.0 mg/kg endoperitoneal,81 s
O=S(=O)(O)CCNCCO [N-hydroxyethyltaurine],Bile dry residue change,[11],-10.9%
same,Bile volume change,[11],-12.2%
same,Bile dry residue after 2 h,[11],26.0 mg/h
same,Bile volume after 2 h,[11],0.72 mL/h
same,Bile dry residue after 1 h,[11],29.1 mg/h
same,Bile volume after 1 h,[11],0.82 mL/h
"O=C(O)c1cccnc1 [Nicotinic acid, nicotinic acid]",Vasodilator effect: duration,[1]; 10.0 mg/kg endoperitoneal,0 min
same,Vasodilator effect: positive response,[1]; 10.0 mg/kg endoperitoneal,0%
same,Vasodilator effect: time of appearance,[1]; 10.0 mg/kg endoperitoneal,0 s
same,Vasodilator effect: positive response,[1]; 25.0 mg/kg endoperitoneal,20%
same,Vasodilator effect: duration,[1]; 50.0 mg/kg endoperitoneal,87 min
same,Vasodilator effect: positive response,[1]; 50.0 mg/kg endoperitoneal,80%
same,Vasodilator effect: time of appearance,[1]; 50.0 mg/kg endoperitoneal,180 s
"NC1CCSC1=O (centres unmarked) [OCT, homocysteinethiolactone, reference compound]","Hepatic intoxication protection, percentage change of BSF in blood vs controls",[12]; test number 1,-22.7%
same,"Hepatic intoxication protection, percentage change of BSF in blood vs controls",[12]; test number 2,-18.5%
CCC(C(=O)O)C1(O)CCC(c2ccccc2)CC1 (stereo not drawn) [α-(1-hydroxy-4-phenylcyclohexyl)butyric acid],Bile dry residue change,[11],+39.1%
same,Bile volume change,[11],+90.0%
same,Bile dry residue after 2 h,[11],32.7 mg/h
same,Bile volume after 2 h,[11],1.14 mL/h
same,Bile dry residue after 1 h,[11],23.5 mg/h
same,Bile volume after 1 h,[11],0.60 mL/h
